Experimental data as given in ChEMBL document CHEMBL5465560, “Selectivity Literature for EUbOPEN Chemogenomic Library” (2024).
One block for each compound: values may come before it.

Tests used:
[1] = molecular target: T1, Mitogen-activated protein kinase kinase kinase 15 (Homo sapiens) (UniProt Q6ZN16); settings: at 10 µM
T1 sequence (whole entry): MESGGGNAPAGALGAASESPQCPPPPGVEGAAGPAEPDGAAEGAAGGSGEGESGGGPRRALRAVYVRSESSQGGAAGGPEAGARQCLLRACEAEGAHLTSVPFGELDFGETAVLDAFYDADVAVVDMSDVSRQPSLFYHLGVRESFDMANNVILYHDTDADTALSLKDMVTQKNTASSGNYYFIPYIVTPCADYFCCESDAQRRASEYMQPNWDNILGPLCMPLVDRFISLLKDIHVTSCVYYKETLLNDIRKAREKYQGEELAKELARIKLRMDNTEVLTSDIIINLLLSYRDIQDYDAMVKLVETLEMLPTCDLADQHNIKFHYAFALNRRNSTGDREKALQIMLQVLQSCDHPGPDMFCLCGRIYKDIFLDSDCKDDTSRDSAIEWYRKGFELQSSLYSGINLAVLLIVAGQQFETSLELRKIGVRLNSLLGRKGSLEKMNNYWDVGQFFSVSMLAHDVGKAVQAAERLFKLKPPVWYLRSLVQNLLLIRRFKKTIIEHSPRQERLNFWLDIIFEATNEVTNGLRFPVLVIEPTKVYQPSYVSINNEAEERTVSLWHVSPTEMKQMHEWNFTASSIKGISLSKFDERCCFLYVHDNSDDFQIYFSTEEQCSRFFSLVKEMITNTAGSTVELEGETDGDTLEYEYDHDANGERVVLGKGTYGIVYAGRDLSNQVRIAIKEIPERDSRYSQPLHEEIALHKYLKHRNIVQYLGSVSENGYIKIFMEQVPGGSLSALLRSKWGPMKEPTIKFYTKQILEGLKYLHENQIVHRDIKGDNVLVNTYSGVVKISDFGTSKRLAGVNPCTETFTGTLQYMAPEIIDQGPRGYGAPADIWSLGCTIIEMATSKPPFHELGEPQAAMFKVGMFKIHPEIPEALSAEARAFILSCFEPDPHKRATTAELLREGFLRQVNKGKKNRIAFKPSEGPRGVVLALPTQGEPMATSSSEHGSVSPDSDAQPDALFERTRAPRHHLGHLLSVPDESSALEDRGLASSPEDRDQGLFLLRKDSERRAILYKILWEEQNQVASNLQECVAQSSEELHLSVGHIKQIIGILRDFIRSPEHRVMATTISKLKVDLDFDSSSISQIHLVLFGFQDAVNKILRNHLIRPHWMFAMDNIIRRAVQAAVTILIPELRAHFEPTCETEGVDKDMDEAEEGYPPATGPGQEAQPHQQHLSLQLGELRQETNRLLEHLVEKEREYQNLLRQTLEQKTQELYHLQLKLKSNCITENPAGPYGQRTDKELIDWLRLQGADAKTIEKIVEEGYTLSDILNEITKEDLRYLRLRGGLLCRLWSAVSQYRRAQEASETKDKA

[2] = molecular target: TP53-binding protein 1 (Homo sapiens) (UniProt Q12888); assay: Selectivity interaction (PWWP, WD40, and Tudor domain panel (DSLS measurements, literature)) EUB0000270b TP53BP1
Focal adhesion kinase 1 = Focal adhesion kinase 1 (Homo sapiens, UniProt Q05397); assay: Selectivity interaction (KinomeScan (DiscoverX)) EUB0001619a PTK2; settings: at 1 µM
[3] = molecular target: T2, Serine/threonine-protein kinase Nek2 (Homo sapiens) (UniProt P51955); assay: Selectivity interaction (SelectScreen profiling (Invitrogen)) EUB0000607a NEK2; settings: at 2 µM
T2 sequence (whole entry): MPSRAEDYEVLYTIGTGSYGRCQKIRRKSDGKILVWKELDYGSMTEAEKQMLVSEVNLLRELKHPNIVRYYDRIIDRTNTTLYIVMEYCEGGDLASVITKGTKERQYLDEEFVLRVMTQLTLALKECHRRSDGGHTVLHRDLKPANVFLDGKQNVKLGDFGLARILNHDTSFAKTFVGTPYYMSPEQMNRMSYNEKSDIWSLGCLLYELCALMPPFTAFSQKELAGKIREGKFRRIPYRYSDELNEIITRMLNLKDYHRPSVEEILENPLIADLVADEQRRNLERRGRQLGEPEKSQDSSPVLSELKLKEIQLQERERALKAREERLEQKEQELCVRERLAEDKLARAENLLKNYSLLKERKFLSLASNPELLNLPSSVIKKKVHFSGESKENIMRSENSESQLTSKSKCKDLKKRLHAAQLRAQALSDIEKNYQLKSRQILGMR

[4] = molecular target: T3, Dual serine/threonine and tyrosine protein kinase (Homo sapiens) (UniProt Q6XUX3); assay: Selectivity interaction (KinomeScan (DiscoverX)) EUB0000666a DSTYK; settings: at 10 µM
T3 sequence (whole entry): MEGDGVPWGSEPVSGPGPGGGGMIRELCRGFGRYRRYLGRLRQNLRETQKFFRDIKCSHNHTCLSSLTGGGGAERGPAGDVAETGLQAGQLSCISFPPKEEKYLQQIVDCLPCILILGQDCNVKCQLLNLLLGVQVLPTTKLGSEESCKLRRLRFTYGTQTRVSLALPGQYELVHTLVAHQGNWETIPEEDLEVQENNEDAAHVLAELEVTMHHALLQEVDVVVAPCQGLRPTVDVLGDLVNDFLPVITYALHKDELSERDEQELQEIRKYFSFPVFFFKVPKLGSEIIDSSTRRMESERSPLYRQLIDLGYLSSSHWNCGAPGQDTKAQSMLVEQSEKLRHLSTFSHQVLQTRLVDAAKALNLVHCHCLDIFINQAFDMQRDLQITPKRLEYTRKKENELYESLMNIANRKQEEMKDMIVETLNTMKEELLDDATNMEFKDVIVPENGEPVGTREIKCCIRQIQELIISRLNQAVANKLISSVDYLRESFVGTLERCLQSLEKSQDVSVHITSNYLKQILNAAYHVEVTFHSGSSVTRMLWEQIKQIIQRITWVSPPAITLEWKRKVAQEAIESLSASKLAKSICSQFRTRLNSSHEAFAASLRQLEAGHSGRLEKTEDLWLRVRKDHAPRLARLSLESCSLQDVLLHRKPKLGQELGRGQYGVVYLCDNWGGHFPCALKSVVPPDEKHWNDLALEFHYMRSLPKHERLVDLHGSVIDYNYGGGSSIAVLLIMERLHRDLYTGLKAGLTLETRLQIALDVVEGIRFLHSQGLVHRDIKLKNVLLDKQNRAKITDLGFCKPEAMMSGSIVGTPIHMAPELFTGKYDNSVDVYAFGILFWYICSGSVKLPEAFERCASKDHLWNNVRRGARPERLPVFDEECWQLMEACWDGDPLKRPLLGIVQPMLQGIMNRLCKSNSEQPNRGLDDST

[5] = molecular target: Serine/threonine-protein kinase 26 (Homo sapiens, UniProt Q9P289); assay: Selectivity interaction (Kinase panel (DSF assay)) EUB0001558a STK26
Chain of Serine/threonine-protein kinase 26 (Q9P289 2-416 limits assumed): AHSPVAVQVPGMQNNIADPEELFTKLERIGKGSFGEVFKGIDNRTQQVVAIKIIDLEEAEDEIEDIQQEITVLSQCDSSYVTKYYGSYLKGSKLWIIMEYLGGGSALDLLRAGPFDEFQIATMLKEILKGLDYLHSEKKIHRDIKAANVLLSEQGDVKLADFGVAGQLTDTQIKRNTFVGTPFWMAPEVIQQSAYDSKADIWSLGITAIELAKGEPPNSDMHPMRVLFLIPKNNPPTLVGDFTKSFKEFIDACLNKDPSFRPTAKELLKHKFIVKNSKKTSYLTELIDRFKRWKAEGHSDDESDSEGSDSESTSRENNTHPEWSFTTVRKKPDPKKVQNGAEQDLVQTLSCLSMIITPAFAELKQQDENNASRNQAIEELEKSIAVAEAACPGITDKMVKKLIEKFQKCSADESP

Chain of TP53-binding protein 1 (Homo sapiens) (Q12888 whole entry, the tested form may be a part): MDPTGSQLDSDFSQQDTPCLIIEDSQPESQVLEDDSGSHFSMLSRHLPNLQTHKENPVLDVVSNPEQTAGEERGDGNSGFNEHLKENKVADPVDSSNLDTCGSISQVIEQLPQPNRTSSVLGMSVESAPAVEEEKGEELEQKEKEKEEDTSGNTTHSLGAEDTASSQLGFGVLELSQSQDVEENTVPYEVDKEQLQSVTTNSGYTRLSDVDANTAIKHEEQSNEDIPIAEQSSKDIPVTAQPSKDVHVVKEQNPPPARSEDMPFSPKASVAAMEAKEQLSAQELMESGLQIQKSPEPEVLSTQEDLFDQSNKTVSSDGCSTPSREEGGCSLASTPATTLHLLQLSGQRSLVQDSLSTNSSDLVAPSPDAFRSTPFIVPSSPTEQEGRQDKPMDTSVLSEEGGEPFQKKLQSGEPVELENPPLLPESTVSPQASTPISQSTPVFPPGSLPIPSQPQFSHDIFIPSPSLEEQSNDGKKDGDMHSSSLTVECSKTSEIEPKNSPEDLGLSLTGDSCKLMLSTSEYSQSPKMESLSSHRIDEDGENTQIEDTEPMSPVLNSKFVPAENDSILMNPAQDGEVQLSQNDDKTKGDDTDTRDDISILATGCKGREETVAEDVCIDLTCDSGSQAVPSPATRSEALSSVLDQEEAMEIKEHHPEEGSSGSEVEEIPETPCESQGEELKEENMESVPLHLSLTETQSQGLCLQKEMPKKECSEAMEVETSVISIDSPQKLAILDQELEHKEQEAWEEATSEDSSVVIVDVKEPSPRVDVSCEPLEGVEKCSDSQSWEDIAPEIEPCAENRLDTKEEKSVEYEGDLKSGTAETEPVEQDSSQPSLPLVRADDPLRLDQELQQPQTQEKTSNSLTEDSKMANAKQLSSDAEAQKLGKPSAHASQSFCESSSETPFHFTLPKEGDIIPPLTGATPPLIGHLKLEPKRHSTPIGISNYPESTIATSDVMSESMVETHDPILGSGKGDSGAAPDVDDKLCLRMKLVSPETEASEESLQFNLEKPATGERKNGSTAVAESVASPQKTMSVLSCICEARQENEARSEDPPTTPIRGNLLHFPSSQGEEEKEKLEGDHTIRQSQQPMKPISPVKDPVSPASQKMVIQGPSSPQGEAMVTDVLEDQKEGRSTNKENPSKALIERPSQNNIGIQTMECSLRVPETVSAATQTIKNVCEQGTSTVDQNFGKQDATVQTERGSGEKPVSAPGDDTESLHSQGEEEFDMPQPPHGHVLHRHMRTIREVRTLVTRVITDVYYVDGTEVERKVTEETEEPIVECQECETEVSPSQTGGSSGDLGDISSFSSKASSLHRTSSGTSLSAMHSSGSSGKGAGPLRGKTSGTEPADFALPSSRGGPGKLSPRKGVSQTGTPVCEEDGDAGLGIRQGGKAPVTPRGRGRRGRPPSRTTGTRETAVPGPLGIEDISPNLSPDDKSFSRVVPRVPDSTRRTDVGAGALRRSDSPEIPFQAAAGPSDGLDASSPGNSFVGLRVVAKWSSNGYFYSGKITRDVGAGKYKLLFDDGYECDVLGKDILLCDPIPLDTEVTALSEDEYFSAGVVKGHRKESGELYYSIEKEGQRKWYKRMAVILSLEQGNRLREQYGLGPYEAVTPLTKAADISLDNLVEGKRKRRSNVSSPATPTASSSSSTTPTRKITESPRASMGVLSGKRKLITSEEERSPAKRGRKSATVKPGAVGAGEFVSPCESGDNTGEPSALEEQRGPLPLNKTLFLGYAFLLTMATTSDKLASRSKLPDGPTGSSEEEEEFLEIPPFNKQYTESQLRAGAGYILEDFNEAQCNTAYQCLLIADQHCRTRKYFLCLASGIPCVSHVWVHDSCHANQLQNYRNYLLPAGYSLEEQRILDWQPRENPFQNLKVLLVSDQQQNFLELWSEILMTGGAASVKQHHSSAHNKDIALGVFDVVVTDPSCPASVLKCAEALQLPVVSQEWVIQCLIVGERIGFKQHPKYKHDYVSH
Chain of Focal adhesion kinase 1 (Q05397 2-1052 limits assumed): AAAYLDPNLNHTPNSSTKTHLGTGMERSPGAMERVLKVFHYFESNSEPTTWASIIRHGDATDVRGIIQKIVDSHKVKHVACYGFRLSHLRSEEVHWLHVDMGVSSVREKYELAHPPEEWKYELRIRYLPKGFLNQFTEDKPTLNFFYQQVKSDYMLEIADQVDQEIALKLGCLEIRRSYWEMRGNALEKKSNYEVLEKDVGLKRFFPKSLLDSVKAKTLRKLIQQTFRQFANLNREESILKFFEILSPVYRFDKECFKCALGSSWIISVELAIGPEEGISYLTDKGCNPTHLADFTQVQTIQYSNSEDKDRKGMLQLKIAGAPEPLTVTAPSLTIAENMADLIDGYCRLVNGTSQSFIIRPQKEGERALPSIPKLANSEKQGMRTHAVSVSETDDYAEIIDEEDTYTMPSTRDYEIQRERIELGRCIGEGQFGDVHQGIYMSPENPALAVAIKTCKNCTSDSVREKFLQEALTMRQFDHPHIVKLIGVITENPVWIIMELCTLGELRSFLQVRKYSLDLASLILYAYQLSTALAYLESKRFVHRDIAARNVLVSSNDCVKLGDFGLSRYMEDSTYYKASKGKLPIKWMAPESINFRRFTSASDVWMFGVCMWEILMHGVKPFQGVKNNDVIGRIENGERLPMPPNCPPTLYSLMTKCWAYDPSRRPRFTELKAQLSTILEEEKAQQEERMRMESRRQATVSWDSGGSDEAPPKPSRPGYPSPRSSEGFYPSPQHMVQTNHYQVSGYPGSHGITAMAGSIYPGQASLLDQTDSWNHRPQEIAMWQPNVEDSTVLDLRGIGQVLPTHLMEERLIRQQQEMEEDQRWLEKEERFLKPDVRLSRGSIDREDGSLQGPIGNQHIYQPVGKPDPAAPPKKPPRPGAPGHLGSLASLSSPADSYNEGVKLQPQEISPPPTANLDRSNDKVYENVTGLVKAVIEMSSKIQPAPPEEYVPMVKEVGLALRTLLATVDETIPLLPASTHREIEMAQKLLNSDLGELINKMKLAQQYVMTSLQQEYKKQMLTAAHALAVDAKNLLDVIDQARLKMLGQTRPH

SMILES: Cc1cc([C@@H](C)Nc2ccccc2C(=O)O)c2nc(N3CCOCC3)cc(=O)n2c1 [AZD-6482]
% of control [1]: 87%

dTagg [2]: 0.1 K
SMILES: Cc1cc(CN)cc(C)c1-c1ncn(C)c1-c1cncn1C

SMILES: N#Cc1cccc(-c2c[nH]c3ncnc(N4CCOCC4)c23)c1
% of control (Focal adhesion kinase 1): 100%

SMILES: CNC(=O)Nc1ccc(-c2nc(N3CC4CCC(C3)O4)c3cnn(C4CCC5(CC4)OCCO5)c3n2)cc1
% of inhibition [3]: 10%

SMILES: O=C(NOC[C@H](O)CO)c1ccc(F)c(F)c1Nc1ccc(I)cc1F
% of control [4]: 100%

SMILES: CC(C)(O)[C@H](F)CN1Cc2cc(NC(=O)c3cnn4cccnc34)c(N3CCOCC3)cc2C1=O
dTM [5]: 0.4 K
